Experimental data taken from PubChem BioAssay (NCI).
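Dose response: 5 concentrations. Exposure: 48 h. Format: 96-well plates. Endpoint: linear interpolation; highest concentration if not reached. Abbreviation: GI50, concentration required for 50% inhibition of growth. TGI: concentration producing complete growth inhibition.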

Experiments:
Assay in all cases: NCI anticancer screen, dose series, 48 h
SNB-75 CNS = test system: SNB-75 CNS
HOP-62 NSCLC = test system: HOP-62 NSCLC
T-47D breast = test system: T-47D breast
SW-620 colon = test system: SW-620 colon
A498 renal = test system: A498 renal
MDA-MB-435 = test system: MDA-MB-435
SNB-19 CNS = test system: SNB-19 CNS
NCI-H226 lung = test system: NCI-H226 lung
MCF7 breast = test system: MCF7 breast
HS 578T breast = test system: HS 578T breast
RPMI-8226 leukemia = test system: RPMI-8226 leukemia
HCT-15 colon = test system: HCT-15 colon
CCRF-CEM leukemia = test system: CCRF-CEM leukemia
KM12 colon = test system: KM12 colon
COLO 205 colon = test system: COLO 205 colon
MDA-MB-231 breast = test system: MDA-MB-231 breast
786-0 renal = test system: 786-0 renal
SK-OV-3 ovarian = test system: SK-OV-3 ovarian
CAKI-1 renal = test system: CAKI-1 renal
SK-MEL-5 melanoma = test system: SK-MEL-5 melanoma
A549 NSCLC = test system: A549 NSCLC
IGROV1 ovarian = test system: IGROV1 ovarian
LOX IMVI melanoma = test system: LOX IMVI melanoma
SF-295 CNS = test system: SF-295 CNS
HOP-92 NSCLC = test system: HOP-92 NSCLC
OVCAR-5 ovarian = test system: OVCAR-5 ovarian
TK-10 renal = test system: TK-10 renal
NCI-H23 lung = test system: NCI-H23 lung
RXF 393 renal = test system: RXF 393 renal
HT29 colon = test system: HT29 colon
SF-539 CNS = test system: SF-539 CNS
OVCAR-3 ovarian = test system: OVCAR-3 ovarian
M14 melanoma = test system: M14 melanoma
BT-549 breast = test system: BT-549 breast
UACC-62 melanoma = test system: UACC-62 melanoma
NCI/ADR-RES ovarian = test system: NCI/ADR-RES ovarian
ACHN renal = test system: ACHN renal
SF-268 CNS = test system: SF-268 CNS
SK-MEL-28 melanoma = test system: SK-MEL-28 melanoma
SN12C renal = test system: SN12C renal
UACC-257 melanoma = test system: UACC-257 melanoma
SK-MEL-2 melanoma = test system: SK-MEL-2 melanoma
DU-145 prostate = test system: DU-145 prostate
MOLT-4 leukemia = test system: MOLT-4 leukemia
PC-3 prostate = test system: PC-3 prostate
K-562 leukemia = test system: K-562 leukemia
EKVX NSCLC = test system: EKVX NSCLC
NCI-H522 lung = test system: NCI-H522 lung
U251 CNS = test system: U251 CNS
NCI-H460 lung = test system: NCI-H460 lung
OVCAR-4 ovarian = test system: OVCAR-4 ovarian
HL-60(TB) leukemia = test system: HL-60(TB) leukemia
OVCAR-8 ovarian = test system: OVCAR-8 ovarian
UO-31 renal = test system: UO-31 renal
HCT-116 colon = test system: HCT-116 colon
HCC-2998 colon = test system: HCC-2998 colon
SR leukemia = test system: SR leukemia
MALME-3M melanoma = test system: MALME-3M melanoma

In the case of COc1ccc(C2=NN(c3ccc(S(N)(=O)=O)cc3)C(c3ccc(Cl)cc3)C2)c(O)c1 (stereo unspecified), the GI50 (SNB-75 CNS) is reported as 5.87 µM, the TGI (SNB-75 CNS) is reported as 45.1 µM and the GI50 (HOP-62 NSCLC) is reported as 9.35 µM. For the same compound, the TGI (HOP-62 NSCLC) was 28.5 µM, the GI50 (T-47D breast) was 2.4 µM and the TGI (T-47D breast) was 7.81 µM. The GI50 (SW-620 colon) was 3.68 µM, the TGI (SW-620 colon) was 14.8 µM and the GI50 (A498 renal) was 3.89 µM. It also gave a TGI (A498 renal) of 14.5 µM, a GI50 (MDA-MB-435) of 3.26 µM and a TGI (MDA-MB-435) of 13.8 µM. It also gave a GI50 (SNB-19 CNS) of 10.8 µM, a TGI (SNB-19 CNS) of 65.1 µM and a GI50 (NCI-H226 lung) of 5.6 µM. It also gave a TGI (NCI-H226 lung) of 19.3 µM, a GI50 (MCF7 breast) of 2.08 µM and a TGI (MCF7 breast) of 8.66 µM. The GI50 (HS 578T breast) was 3.93 µM, the TGI (HS 578T breast) was 19.5 µM and the GI50 (RPMI-8226 leukemia) was 1.84 µM. The TGI (RPMI-8226 leukemia) was 6.71 µM, the GI50 (HCT-15 colon) was 2.98 µM and the TGI (HCT-15 colon) was 13.9 µM. For the same compound, the GI50 (CCRF-CEM leukemia) was 2.39 µM, the TGI (CCRF-CEM leukemia) was 6.92 µM and the GI50 (KM12 colon) was 2.67 µM. The TGI (KM12 colon) was 7.91 µM, the GI50 (COLO 205 colon) was 3.59 µM and the TGI (COLO 205 colon) was 13.3 µM. It also gave a GI50 (MDA-MB-231 breast) of 9.89 µM, a TGI (MDA-MB-231 breast) of 27.4 µM and a GI50 (786-0 renal) of 2.22 µM. The TGI (786-0 renal) was 5.15 µM, the GI50 (SK-OV-3 ovarian) was 8.23 µM and the TGI (SK-OV-3 ovarian) was 56 µM. It also gave a GI50 (CAKI-1 renal) of 2.67 µM, a TGI (CAKI-1 renal) of 8.64 µM and a GI50 (SK-MEL-5 melanoma) of 6.24 µM. The TGI (SK-MEL-5 melanoma) was 19.1 µM, the GI50 (A549 NSCLC) was 3.38 µM and the TGI (A549 NSCLC) was 35.1 µM. The GI50 (IGROV1 ovarian) was 3.63 µM, the TGI (IGROV1 ovarian) was 15.2 µM and the GI50 (LOX IMVI melanoma) was 4.83 µM. For the same compound, the TGI (LOX IMVI melanoma) was 17 µM, the GI50 (SF-295 CNS) was 3.1 µM and the TGI (SF-295 CNS) was 14.5 µM. For the same compound, the GI50 (HOP-92 NSCLC) was 2.97 µM, the TGI (HOP-92 NSCLC) was 15.6 µM and the GI50 (OVCAR-5 ovarian) was 9.44 µM. It also gave a TGI (OVCAR-5 ovarian) of 29.3 µM, a GI50 (TK-10 renal) of 2.49 µM and a TGI (TK-10 renal) of 9.02 µM. The GI50 (NCI-H23 lung) was 3.32 µM, the TGI (NCI-H23 lung) was 13.7 µM and the GI50 (RXF 393 renal) was 2.53 µM. It also gave a TGI (RXF 393 renal) of 9.78 µM, a GI50 (HT29 colon) of 2.83 µM and a TGI (HT29 colon) of 8.68 µM. For the same compound, the GI50 (SF-539 CNS) was 10.1 µM, the TGI (SF-539 CNS) was 22.3 µM and the GI50 (OVCAR-3 ovarian) was 2.6 µM. It also gave a TGI (OVCAR-3 ovarian) of 7.45 µM, a GI50 (M14 melanoma) of 7.89 µM and a TGI (M14 melanoma) of 25.2 µM. The GI50 (BT-549 breast) was 4.07 µM, the TGI (BT-549 breast) was 13.6 µM and the GI50 (UACC-62 melanoma) was 5.89 µM. It also gave a TGI (UACC-62 melanoma) of 19.7 µM, a GI50 (NCI/ADR-RES ovarian) of 3.98 µM and a TGI (NCI/ADR-RES ovarian) of 21.1 µM. It also gave a GI50 (ACHN renal) of 3.58 µM, a TGI (ACHN renal) of 50.6 µM and a GI50 (SF-268 CNS) of 5.7 µM. For the same compound, the TGI (SF-268 CNS) was 25.5 µM, the GI50 (SK-MEL-28 melanoma) was 5.06 µM and the TGI (SK-MEL-28 melanoma) was 18.1 µM. It also gave a GI50 (SN12C renal) of 5.09 µM, a TGI (SN12C renal) of 18.3 µM and a GI50 (UACC-257 melanoma) of 6.84 µM. For the same compound, the TGI (UACC-257 melanoma) was 42 µM, the GI50 (SK-MEL-2 melanoma) was 6.3 µM and the TGI (SK-MEL-2 melanoma) was 22.7 µM. The GI50 (DU-145 prostate) was 5.88 µM, the TGI (DU-145 prostate) was 20.7 µM and the GI50 (MOLT-4 leukemia) was 1.92 µM. It also gave a TGI (MOLT-4 leukemia) of 5.07 µM, a GI50 (PC-3 prostate) of 2.78 µM and a TGI (PC-3 prostate) of 14.6 µM. For the same compound, the GI50 (K-562 leukemia) was 1.8 µM, the TGI (K-562 leukemia) was 4.09 µM and the GI50 (EKVX NSCLC) was 2.71 µM. The TGI (EKVX NSCLC) was 10.5 µM, the GI50 (NCI-H522 lung) was 2.42 µM and the TGI (NCI-H522 lung) was 11.1 µM. It also gave a GI50 (U251 CNS) of 4.47 µM, a TGI (U251 CNS) of 21.2 µM and a GI50 (NCI-H460 lung) of 2.31 µM. The TGI (NCI-H460 lung) was 6.08 µM, the GI50 (OVCAR-4 ovarian) was 4.51 µM and the TGI (OVCAR-4 ovarian) was 37.5 µM. The GI50 (HL-60(TB) leukemia) was 1.86 µM, the TGI (HL-60(TB) leukemia) was 4.99 µM and the GI50 (OVCAR-8 ovarian) was 4.74 µM. For the same compound, the TGI (OVCAR-8 ovarian) was 44.4 µM, the GI50 (UO-31 renal) was 1.97 µM and the TGI (UO-31 renal) was 13.5 µM. It also gave a GI50 (HCT-116 colon) of 2.32 µM, a TGI (HCT-116 colon) of 8.63 µM and a GI50 (HCC-2998 colon) of 2.62 µM. The TGI (HCC-2998 colon) was 5.37 µM, the GI50 (SR leukemia) was 0.897 µM and the TGI (SR leukemia) was 3.61 µM. For the same compound, the GI50 (MALME-3M melanoma) was 4.03 µM and the TGI (MALME-3M melanoma) was 16.7 µM.
